Data reported in ChEMBL document CHEMBL1938230, “6-Position optimization of tricyclic 4-quinolone-based inhibitors of glycogen synthase kinase-3β: discovery of nitrile derivatives with picomolar potency” (Bioorg Med Chem Lett, 2012).

Columns and labels:
[1] = molecular target: Dual specificity mitogen-activated protein kinase kinase 2 (Homo sapiens) (UniProt P36507); test: Inhibition of human MAP2K2 in HL-60 cells lysate assessed as reduction of labeling of acyl-phosphate ATP probe at 100 nM; assay type: cell-free
Dual specificity mitogen-activated protein kinase kinase 2 (Homo sapiens), sequence (P36507 whole entry): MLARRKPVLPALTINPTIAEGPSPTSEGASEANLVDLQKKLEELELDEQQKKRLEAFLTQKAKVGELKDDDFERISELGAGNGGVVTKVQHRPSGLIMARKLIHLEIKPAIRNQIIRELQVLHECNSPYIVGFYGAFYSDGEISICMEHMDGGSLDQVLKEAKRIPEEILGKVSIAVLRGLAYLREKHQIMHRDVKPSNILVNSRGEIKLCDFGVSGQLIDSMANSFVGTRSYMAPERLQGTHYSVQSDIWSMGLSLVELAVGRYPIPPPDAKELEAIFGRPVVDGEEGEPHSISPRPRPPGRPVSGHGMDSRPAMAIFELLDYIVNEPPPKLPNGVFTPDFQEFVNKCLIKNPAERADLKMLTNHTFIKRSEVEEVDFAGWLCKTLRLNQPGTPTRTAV

[2] = molecular target: Serine/threonine-protein kinase PAK 2 (Homo sapiens) (UniProt Q13177); test: Inhibition of human PAK2 in HL-60 cells lysate assessed as reduction of labeling of acyl-phosphate ATP probe at 100 nM; assay type: cell-free
Serine/threonine-protein kinase PAK 2 (Homo sapiens), sequence (Q13177 whole entry): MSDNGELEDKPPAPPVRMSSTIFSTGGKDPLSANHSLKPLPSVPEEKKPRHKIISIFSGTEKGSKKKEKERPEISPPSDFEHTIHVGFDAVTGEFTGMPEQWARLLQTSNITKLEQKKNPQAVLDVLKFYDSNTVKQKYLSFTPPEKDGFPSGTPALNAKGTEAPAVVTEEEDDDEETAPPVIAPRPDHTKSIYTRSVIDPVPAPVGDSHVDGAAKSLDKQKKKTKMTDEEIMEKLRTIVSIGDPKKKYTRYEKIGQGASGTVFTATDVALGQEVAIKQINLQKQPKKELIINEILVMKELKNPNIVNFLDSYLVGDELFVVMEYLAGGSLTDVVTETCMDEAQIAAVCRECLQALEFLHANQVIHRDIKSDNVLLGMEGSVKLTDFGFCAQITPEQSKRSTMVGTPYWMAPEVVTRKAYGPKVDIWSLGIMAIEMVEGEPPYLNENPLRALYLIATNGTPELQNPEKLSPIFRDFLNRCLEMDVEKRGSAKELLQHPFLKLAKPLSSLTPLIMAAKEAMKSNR

[3] = molecular target: T1, Serine/threonine-protein kinase Nek1 (Homo sapiens) (UniProt Q96PY6); test: Inhibition of human NEK1 in HL-60 cells lysate assessed as reduction of labeling of acyl-phosphate ATP probe at 100 nM; assay type: cell-free
T1 sequence (whole entry): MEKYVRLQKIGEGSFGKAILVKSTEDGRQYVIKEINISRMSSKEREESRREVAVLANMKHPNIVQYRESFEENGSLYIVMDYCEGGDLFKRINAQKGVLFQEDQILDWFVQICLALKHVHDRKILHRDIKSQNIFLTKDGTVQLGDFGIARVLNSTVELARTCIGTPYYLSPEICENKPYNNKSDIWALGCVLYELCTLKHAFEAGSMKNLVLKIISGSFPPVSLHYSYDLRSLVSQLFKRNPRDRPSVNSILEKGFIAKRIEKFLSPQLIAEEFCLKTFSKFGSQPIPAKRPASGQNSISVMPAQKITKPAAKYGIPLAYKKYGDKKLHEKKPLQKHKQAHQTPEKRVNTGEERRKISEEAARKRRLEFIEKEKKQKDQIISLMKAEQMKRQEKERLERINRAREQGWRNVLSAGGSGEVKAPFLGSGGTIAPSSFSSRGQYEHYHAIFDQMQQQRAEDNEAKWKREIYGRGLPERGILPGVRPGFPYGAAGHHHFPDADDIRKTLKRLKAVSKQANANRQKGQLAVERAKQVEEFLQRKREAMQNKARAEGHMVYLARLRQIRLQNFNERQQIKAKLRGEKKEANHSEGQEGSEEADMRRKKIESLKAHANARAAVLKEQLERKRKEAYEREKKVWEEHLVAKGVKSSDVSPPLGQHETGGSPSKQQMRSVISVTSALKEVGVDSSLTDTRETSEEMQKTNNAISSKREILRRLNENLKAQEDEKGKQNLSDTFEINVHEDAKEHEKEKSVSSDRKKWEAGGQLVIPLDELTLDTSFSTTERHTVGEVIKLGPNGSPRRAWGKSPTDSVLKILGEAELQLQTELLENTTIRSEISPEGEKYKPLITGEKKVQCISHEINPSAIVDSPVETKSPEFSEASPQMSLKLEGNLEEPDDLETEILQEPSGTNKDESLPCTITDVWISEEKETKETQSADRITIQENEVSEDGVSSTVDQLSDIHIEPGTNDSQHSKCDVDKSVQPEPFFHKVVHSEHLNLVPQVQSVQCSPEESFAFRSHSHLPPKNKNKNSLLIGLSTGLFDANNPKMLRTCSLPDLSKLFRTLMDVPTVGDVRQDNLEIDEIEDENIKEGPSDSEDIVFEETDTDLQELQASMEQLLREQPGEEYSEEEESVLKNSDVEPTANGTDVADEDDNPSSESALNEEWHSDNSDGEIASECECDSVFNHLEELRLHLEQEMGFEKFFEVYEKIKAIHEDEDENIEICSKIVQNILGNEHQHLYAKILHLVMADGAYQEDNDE

HL-60 = test: Inhibition of human AurA/AurB/AurC in HL-60 cells lysate assessed as reduction of labeling of acyl-phosphate ATP probe at 100 nM
[4] = molecular target: Serine/threonine-protein kinase Nek6 (Homo sapiens) (UniProt Q9HC98); test: Inhibition of human NEK6 in HL-60 cells lysate assessed as reduction of labeling of acyl-phosphate ATP probe at 100 nM; assay type: cell-free
Serine/threonine-protein kinase Nek6 (Homo sapiens), sequence (Q9HC98 whole entry): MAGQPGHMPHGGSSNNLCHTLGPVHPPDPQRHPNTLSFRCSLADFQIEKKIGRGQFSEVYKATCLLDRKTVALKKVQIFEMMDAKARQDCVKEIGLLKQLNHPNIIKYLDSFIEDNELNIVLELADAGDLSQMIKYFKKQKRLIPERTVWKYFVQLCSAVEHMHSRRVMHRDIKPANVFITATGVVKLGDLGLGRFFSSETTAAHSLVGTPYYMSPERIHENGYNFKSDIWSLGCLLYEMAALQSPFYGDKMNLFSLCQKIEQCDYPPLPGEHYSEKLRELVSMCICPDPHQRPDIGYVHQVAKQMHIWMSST

[5] = molecular target: Calcium/calmodulin-dependent protein kinase kinase 2 (Homo sapiens) (UniProt Q96RR4); test: Inhibition of human CaMKK2 in HL-60 cells lysate assessed as reduction of labeling of acyl-phosphate ATP probe at 100 nM; assay type: cell-free
Calcium/calmodulin-dependent protein kinase kinase 2 (Homo sapiens), sequence (Q96RR4 2-588 limits assumed): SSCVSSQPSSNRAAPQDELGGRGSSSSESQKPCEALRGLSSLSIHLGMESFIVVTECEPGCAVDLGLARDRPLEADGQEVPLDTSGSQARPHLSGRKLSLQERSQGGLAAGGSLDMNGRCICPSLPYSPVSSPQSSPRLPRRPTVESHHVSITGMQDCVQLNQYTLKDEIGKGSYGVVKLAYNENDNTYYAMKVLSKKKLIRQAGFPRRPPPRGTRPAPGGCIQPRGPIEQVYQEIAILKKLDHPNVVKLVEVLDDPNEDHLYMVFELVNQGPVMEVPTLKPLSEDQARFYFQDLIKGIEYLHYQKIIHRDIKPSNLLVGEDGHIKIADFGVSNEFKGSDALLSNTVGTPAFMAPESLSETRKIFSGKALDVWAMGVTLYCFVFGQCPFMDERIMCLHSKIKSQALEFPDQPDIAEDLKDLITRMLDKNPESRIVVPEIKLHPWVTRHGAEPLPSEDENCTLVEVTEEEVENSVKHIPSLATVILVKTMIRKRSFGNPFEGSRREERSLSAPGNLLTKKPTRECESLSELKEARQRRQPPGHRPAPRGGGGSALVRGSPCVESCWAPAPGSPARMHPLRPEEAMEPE

[6] = molecular target: T2, Mitogen-activated protein kinase kinase kinase 2 (Homo sapiens) (UniProt Q9Y2U5); test: Inhibition of human MAP3K2 in HL-60 cells lysate assessed as reduction of labeling of acyl-phosphate ATP probe at 100 nM; assay type: cell-free
T2 sequence (whole entry): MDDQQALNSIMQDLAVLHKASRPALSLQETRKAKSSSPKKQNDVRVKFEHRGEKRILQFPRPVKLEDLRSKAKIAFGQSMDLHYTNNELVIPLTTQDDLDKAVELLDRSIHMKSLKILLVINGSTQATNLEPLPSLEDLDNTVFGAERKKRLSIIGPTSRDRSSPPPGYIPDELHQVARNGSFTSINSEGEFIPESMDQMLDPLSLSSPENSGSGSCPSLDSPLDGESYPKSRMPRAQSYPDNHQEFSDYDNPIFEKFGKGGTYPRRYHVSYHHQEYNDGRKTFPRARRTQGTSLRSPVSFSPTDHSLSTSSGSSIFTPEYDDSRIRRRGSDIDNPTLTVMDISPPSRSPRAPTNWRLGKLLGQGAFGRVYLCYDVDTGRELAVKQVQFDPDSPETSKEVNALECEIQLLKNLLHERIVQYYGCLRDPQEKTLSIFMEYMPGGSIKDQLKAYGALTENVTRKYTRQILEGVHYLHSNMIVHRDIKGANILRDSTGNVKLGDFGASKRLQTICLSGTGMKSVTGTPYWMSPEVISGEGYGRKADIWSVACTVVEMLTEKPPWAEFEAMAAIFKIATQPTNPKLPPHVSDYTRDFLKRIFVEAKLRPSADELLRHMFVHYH

[7] = molecular target: T3, Inositol-tetrakisphosphate 1-kinase (Homo sapiens) (UniProt Q13572); test: Inhibition of human ITPK1 in HL-60 cells lysate assessed as reduction of labeling of acyl-phosphate ATP probe at 100 nM; assay type: cell-free
T3 sequence (whole entry): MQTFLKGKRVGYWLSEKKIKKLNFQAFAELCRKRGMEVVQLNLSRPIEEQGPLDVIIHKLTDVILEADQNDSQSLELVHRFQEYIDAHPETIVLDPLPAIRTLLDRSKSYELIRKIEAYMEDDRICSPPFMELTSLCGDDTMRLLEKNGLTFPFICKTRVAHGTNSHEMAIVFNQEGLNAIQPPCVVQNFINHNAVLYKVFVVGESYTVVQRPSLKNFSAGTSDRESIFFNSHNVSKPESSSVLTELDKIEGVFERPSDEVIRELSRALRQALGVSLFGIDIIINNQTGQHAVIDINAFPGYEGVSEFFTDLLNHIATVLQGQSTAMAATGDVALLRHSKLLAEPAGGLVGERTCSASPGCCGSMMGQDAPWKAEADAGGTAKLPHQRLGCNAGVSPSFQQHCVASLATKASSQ

[8] = molecular target: TRAF2 and NCK-interacting protein kinase (Homo sapiens) (UniProt Q9UKE5); test: Inhibition of human ZC2/TNIK in HL-60 cells lysate assessed as reduction of labeling of acyl-phosphate ATP probe at 100 nM; assay type: cell-free
TRAF2 and NCK-interacting protein kinase (Homo sapiens), sequence (Q9UKE5 whole entry, looked up): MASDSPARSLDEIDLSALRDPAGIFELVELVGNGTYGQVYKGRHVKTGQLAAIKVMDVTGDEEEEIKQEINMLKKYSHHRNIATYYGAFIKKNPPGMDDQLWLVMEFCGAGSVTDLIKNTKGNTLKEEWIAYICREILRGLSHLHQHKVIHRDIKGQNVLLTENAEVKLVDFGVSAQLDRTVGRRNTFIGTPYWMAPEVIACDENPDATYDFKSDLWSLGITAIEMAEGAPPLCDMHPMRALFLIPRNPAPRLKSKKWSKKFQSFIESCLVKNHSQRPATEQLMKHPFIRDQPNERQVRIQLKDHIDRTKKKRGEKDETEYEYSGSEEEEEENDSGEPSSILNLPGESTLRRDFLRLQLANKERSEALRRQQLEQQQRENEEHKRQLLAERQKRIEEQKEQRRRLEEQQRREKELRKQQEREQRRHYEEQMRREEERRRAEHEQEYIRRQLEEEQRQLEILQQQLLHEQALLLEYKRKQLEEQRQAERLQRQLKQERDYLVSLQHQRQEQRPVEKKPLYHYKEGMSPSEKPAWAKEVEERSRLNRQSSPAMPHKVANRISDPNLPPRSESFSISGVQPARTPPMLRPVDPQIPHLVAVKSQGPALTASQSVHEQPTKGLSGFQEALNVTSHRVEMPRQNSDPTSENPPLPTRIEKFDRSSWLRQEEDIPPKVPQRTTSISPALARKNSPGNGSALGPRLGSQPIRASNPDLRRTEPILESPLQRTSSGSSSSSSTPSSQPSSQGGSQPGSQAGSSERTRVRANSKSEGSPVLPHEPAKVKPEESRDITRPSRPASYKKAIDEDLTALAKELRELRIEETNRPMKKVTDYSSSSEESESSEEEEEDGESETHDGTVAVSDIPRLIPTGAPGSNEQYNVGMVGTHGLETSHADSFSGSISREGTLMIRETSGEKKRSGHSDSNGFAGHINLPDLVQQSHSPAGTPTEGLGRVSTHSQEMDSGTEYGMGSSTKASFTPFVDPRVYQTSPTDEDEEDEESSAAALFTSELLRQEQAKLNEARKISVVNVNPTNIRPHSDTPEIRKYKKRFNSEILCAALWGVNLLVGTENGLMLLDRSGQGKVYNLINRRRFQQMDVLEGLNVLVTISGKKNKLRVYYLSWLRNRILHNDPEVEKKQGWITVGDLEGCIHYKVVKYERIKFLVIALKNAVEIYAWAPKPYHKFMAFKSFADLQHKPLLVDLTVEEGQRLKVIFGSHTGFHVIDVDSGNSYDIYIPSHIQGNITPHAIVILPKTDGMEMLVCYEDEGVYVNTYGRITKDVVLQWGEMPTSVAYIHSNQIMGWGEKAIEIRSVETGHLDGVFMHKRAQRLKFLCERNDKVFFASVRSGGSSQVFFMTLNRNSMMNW

C[C@H]1COc2c(NCCCc3ccccn3)c(F)c(N)c3c(=O)c(C#N)cn1c23
< 35%: inhibition [1] | inhibition [2] | inhibition [3] | inhibition at 0.1 µM (HL-60) | inhibition [4] | inhibition [5] | inhibition [6] | inhibition [7] | inhibition [8]

C[C@H]1COc2c(NCCCc3ccccn3)c(F)c(N)c3c(=O)c(C(=O)O)cn1c23
< 35%: inhibition [1] | inhibition [2] | inhibition [3] | inhibition at 0.1 µM (HL-60) | inhibition [4] | inhibition [5] | inhibition [6] | inhibition [7] | inhibition [8]

C[C@H]1COc2c(NCCCn3cccn3)c(F)c(N)c3c(=O)c(C(=O)O)cn1c23
< 35%: inhibition [1] | inhibition [2] | inhibition [3] | inhibition at 0.1 µM (HL-60) | inhibition [4] | inhibition [5] | inhibition [6] | inhibition [7] | inhibition [8]

C[C@H]1COc2c(NCCCn3cccn3)c(F)c(N)c3c(=O)c(C#N)cn1c23
< 35%: inhibition [1] | inhibition [2] | inhibition [3] | inhibition at 0.1 µM (HL-60) | inhibition [4] | inhibition [5] | inhibition [6] | inhibition [7] | inhibition [8]
